{
  "source": "patent US12065468B2",
  "about": "“Heme-binding small peptide” (priority 2021, dated 2024)",
  "key": {"[1]": {"experiment": "Biolayer interferometry of heme binding", "excerpt": "Biotinylation of heme: Hemin was biotinylated using the method exactly as described previouslyl^16. Biotin hydrazide, DCC was purchased from Sigma. COSMOSIL™ 5C18-AR-II Packed Column, 4.6 mm I.D.×150 mm from Nacalai USA (San Diego, CA) was used to separate the products. LC-MS was used to verify the correct molecular weight (969.4 Da) of biotinylated heme (in which only one of the two propionate groups of protoheme was conjugated with biotin hydrazide) as described above.\nBiolayer interferometry: Biolayer interferometry was carried out using a ForteBio Octet RED96™ biolayer interferometer, following the manufacturer's instructions for a standard kinetic assay. Streptavidin-coated biosensor tips were incubated in 200 μl assay buffer (Water [pH 7.4]), each for 60s. Then biotinylated heme (or NCR247 in the case of Fe(III) PPIX dimethyl ester chloride) was loaded onto each biosensor tip at the defined concentration until the binding signal reached a value of >1.4. Biosensor tip loading was followed by incubation in assay buffer for 60s. Association between the ligand-heme and the analyte-various variants of NCR247 (Increasing concentrations in assay buffer) was observed over a time frame of ˜116 s, in assay buffer. To stop binding kinetics for dissociation, the biosensor tips were placed back into assay buffer not containing any analyte, for 120 s. Curves were fit with Global fit analysis and Data analysis and KD calculation was performed using Fortebio™ data analyses 8.2 software as described previously^89."}, "Cytochrome c": {"tested_on": "Cytochrome c", "experiment": "UV-Vis test of heme sequestration from Cytochrome c", "type": "binding", "conditions": "excess NCR247", "description": "FIG. 13. […] The absorption spectrum of Cytochrome c remains unaltered even after addition of excess NCR247.\n(§1) UV-VIS spectroscopy: All absorption spectra were collected in a Tecan Spark™ 10 M microplate reader using black polystyrene 96-well plates. Absorbance from 300 nm to 700 nm was recorded with a 5 nm interval after an initial shaking at 100 rpm for 15 secs. Heme binding to synthesized peptide: Water (pH 7.4) was used in all reactions and was first added to the wells. Peptides solubilized in water were added and then heme solubilized in 0.1 M NaOH was added, mixed thoroughly and measurements were taken immediately. Peptide and heme volume were kept to a maximum of 5 ul in volume. For all the absorption curves (except Extended FIG. 3a) […] was used. The same was also repeated with 0.1 M Tris buffer (pH 7.4) as a base buffer instead of water."}, "Sinorhizobium meliloti": {"tested_on": "Sinorhizobium meliloti", "experiment": "S. meliloti cell death in 24 hours (plating)", "type": "cell-based"}, "Aβ (1-42)-heme complex": {"target": "T1, Aβ (1-42)-heme complex (Homo sapiens, UniProt P05067)", "T1 construct": "equimolar addition of NCR247 to the Aβ (1-42) amyloid peptide-heme complex; purchased Genscript", "T1 sequence (P05067 672-713 limits assumed, one chain of several)": "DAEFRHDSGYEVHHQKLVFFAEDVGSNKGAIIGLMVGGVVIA", "experiment": "Peroxidase assay of Aβ-heme complex on TMB", "type": "biochemical", "conditions": "equimolar addition of NCR247"}, "Aβ-heme complex": {"target": "T2, Aβ-heme complex (Homo sapiens, UniProt P05067)", "T2 construct": "equimolar addition of NCR247 to the Aβ (1-42) amyloid peptide-heme complex; purchased Genscript", "T2 sequence (P05067 672-713, one chain of several)": "as the sequence (P05067 672-713 limits assumed, one chain of several) above", "experiment": "UV-Vis spectrum of Aβ-heme complex with NCR247", "type": "binding", "description": "FIG. 4. […] In a, b and e, data are presented as mean of three independent replicates ±s.d. In a and b ****P<0.0001 vs untreated sample; two-way analysis of variance (ANOVA) with multiple comparisons.\nas §1"}, "S. meliloti": {"tested_on": "S. meliloti", "experiment": "Radioactive 55Fe uptake assay", "type": "cell-based, Sinorhizobium meliloti", "conditions": "2 μM, medium with sufficient iron", "description": "Iron uptake assay: Radioactive ^55Fe uptake assays were performed as described previously^66 with some modifications. Cells were grown in LB to an O.D.600 nm of 0.2. 20 ml cultures were then spun down, and suspended in 20 ml minimal media with 5 μM FeSO4 for 1 hour. 2 μM NCR247 and then 100 μM sodium ascorbate was added, and cells were incubated for additional 30 mins. At time 0, 1 μM^55FeCl3 mixed with ascorbate was added. At given time points, 1 ml aliquots were taken and quenched in 3 ml of ice-cold quench buffer (0.1M Tris, 1 mM ascorbate, and 100 μM FeSO4, pH 6.0). The cells were collected immediately after quenching on 0.45-μm filters, presoaked in quench buffer using a Millipore sigma 1225 vacuum filtration unit. The radioactive ^55Fe content of the filters with cells was counted using a scintillation counter. Internalized ^55Fe levels were normalized to the protein levels in the cell."}, "Caenorhabditis elegans": {"tested_on": "Caenorhabditis elegans", "experiment": "C. elegans growth", "conditions": "in vivo", "excerpt": "When grown in the lab, the widely-studied model nematode Caenorhabditis elegans normally acquires heme by ingesting bacteria and breaking them down to release heme. […] A new class of heme importer was identified in C. elegans by analyzing heme-responsive proteins and orthologs have been subsequently identified in other parasites such as the kinetoplastid parasite discussed above."}, "[2]": {"tested_on": "ndvA (FeuP regulated), SMc 01581 (ExoS regulated)", "experiment": "qRT-PCR of FeuP and ExoS regulated genes", "type": "cell-based, Sinorhizobium meliloti", "conditions": "2 μM, 30 mins; listed as L-NCR247", "excerpt": "FIG. 17. […] The data are expressed as starting quantities (SQ) of respective mRNAs normalized to the control gene SMc00128 and are presented as average of three technical replicates FIG. 18. NCR247 binds heme and this heme sequestration leads to an iron starvation response in S. meliloti and this happens in the cytoplasm since a bacA mutant is defective in inducing iron import genes. […] The data are expressed as starting quantities (SQ) of respective mRNAs normalized to the control gene SMc00128 and are presented as average of three technical replicates. […] Data are presented as average of three technical replicates\nRNA isolation and qRT-PCR analysis: Cells were grown in LB until they reached an O.D.600 nm of 0.2. Then cells were spun down and suspended in minimal media with or without appropriate FeSO4 concentrations for 1 hour. NCR247 was then added and 5 ml of appropriate cultures were spun down at given time intervals. Total RNA was extracted using Trizol™ (Thermo Fisher Scientific) method. Qiagen RNeasy™ kit was used to purify the RNA. […] The standard curve method was used for relative quantification. […] This curve was then used for extrapolating relative expression level of each gene of interest in a particular sample to obtain the starting quantities (SQ). […] These normalized values are then expressed as an average of triplicates, with standard deviation (s.d.) represented by the error bars. […]"}},
  "note": "“Also recorded” adds a separate entry of the source.",
  "data": [
    {"sequence": "RNGCIVDPRCPYQQCRRPLYCRRR [NCR247]", "values": [
      {"measurement": "Kd", "setting": "[1]; biotinylated heme as ligand, peptide as analyte", "value": "~1", "unit": "nM"},
      {"measurement": "heme binding affinity, in words", "setting": "[1]; compared with NCR247 (L-enantiomer)", "value": "binds heme with nanomolar affinity"},
      {"measurement": "sequestration of heme from Cytochrome c", "setting": "Cytochrome c", "value": "cannot sequester cytochrome heme; also recorded: inability of NCR247 to sequester heme from Cytochrome c"},
      {"measurement": "Cell death in 24 hours", "setting": "Sinorhizobium meliloti; 6 uM peptide", "value": "10000 fold decrease in fold decrease in cell number"},
      {"measurement": "reduction in number of S. meliloti cells (bactericidal effect)", "setting": "Sinorhizobium meliloti; incubated 24 hours, plated in non-selective medium", "value": "causes a reduction in the number of S. meliloti cells"},
      {"measurement": "peroxidase activity of Aβ (1-42)-heme complex", "setting": "Aβ (1-42)-heme complex", "value": "quenches its peroxidase activity"},
      {"measurement": "removal of heme from Aβ-heme complex", "setting": "Aβ-heme complex", "value": "can strip the heme out of the Aβ-heme complex"},
      {"measurement": "uptake of 55Fe", "setting": "S. meliloti", "value": "markedly increased the import of ^55Fe"},
      {"measurement": "growth of C. elegans", "setting": "Caenorhabditis elegans", "value": "can block the growth; also recorded: blocks growth of the nematode C. elegans, arresting them in the L1 stage"},
      {"measurement": "expression of FeuP and ExoS regulated genes", "setting": "[2]", "value": "increased in expression; also recorded: increase in expression of ndvA"}
    ]}
  ]
}
